Assay [1] concerns the target T1, HCV NS3/4A protease complex (Hepatitis C virus genotype 1a, UniProt P27958, C1454S/C1711G).
T1 construct: DNA encoding the recombinant HCV NS3/4A protease complex (amino acids 1027 to 1711) for these strains; inferred from the pET21b vector and Ni-NTA purification; made in house; host or cells: Escherichia coli BL21 (DE3)
The experiment in a line: FRET peptide assay to monitor HCV NS3/4A proteolytic activity. It is filed as biochemical. As to conditions: recombinant NS3/4A protease complex, strain not stated. From the text:
HCV NS3 protease complexes, derived from the BMS strain, H77 strain or J4L6S strain, were generated, as described below. These purified recombinant proteins were generated for use in a homogeneous assay (see below) to provide an indication of how effective compounds of the present disclosure would be in inhibiting HCV NS3 proteolytic activity.
Serum from an HCV-infected patient was obtained from Dr. T. Wright, San Francisco Hospital. An engineered full-length cDNA (compliment deoxyribonucleic acid) template of the HCV genome (BMS strain) was constructed from DNA fragments obtained by reverse transcription-PCR (RT-PCR) of serum RNA (ribonucleic acid) and using primers selected on the basis of homology between other genotype 1a strains. From the determination of the entire genome sequence, a genotype 1a was assigned to the HCV isolate according to the classification of Simmonds et al. (See P Simmonds, K A Rose, S Graham, S W Chan, F McOmish, B C Dow, E A Follett, P L Yap and H Marsden, J. Clin. Microbiol., 31(6), 1493-1503 (1993)). […] The infectious clones, H77 (1a genotype) and J4L6S (1b genotype) were obtained from R. Purcell (NIH) and the sequences are published in Genbank (AAB67036, see Yanagi, M., Purcell, R. H., Emerson, S. U. and Bukh, J. Proc. Natl. Acad. Sci. U.S.A. 94(16), 8738-8743 (1997); AF054247, see Yanagi, M., St Claire, M., Shapiro, M., Emerson, S. U., Purcell, R. H. and Bukh, J., Virology 244 (1), 161-172. (1998)).
The H77 and J4L6S strains were used for production of recombinant NS3/4A protease complexes. DNA encoding the recombinant HCV NS3/4A protease complex (amino acids 1027 to 1711) for these strains was manipulated as described by P. Gallinari et al. (see Gallinari P, Paolini C, Brennan D, Nardi C, Steinkuhler C, De Francesco R. Biochemistry. 38(17):5620-32, (1999)). Briefly, a three-lysine solubilizing tail was added at the 3′-end of the NS4A coding region. The cysteine in the P1 position of the NS4A-NS4B cleavage site (amino acid 1711) was changed to a glycine to avoid the proteolytic cleavage of the lysine tag. Furthermore, a cysteine to serine mutation was introduced by PCR at amino acid position 1454 to prevent the autolytic cleavage in the NS3 helicase domain. The variant DNA fragment was cloned in the pET21b bacterial expression vector (Novagen) and the NS3/4A complex was expressed in Escherichia coli strain BL21 (DE3) (Invitrogen) following the protocol described by P. Gallinari et al. (see Gallinari P, Brennan D, Nardi C, Brunetti M, Tomei L, Steinkuhler C, De Francesco R., J Viral. 72(8):6758-69 (1998)) with modifications. Briefly, the NS3/4A protease complex expression was induced with 0.5 millimolar (mM) Isopropyl β-D-1-thiogalactopyranoside (IPTG) for 22 hours (h) at 20° C. […]

Assay [2] relates to HCV replicon in HUH-7 cells. Briefly: HCV replicon FRET assay (confirmed in replicon luciferase reporter assay). It is filed as cell-based. As to conditions: Hepatitis C virus, 96 h, HUH-7 cells expressing HCV 1b replicon, 4 days. The source says: An HCV replicon whole cell system was established as described by Lohmann V, Korner F, Koch J, Herian U, Theilmann L, Bartenschlager R., Science 285(5424):110-3 (1999). This system enabled us to evaluate the effects of our HCV Protease compounds on HCV RNA replication. Briefly, using the HCV strain 1b sequence described in the Lohmann paper (Assession number: AJ238799), an HCV cDNA was synthesized by Operon Technologies, Inc. (Alameda, Calif.), and the full-length replicon was then assembled in plasmid pGem9zf(+) (Promega, Madison, Wis.) using standard molecular biology techniques. The replicon consists of (i) the HCV 5′ UTR fused to the first 12 amino acids of the capsid protein, (ii) the neomycin phosphotransferase gene (neo), (iii) the IRES from encephalomyocarditis virus (EMCV), and (iv) HCV NS3 to NS5B genes and the HCV 3′ UTR. Plasmid DNAs were linearized with ScaI and RNA transcripts were synthesized in vitro using the T7 MegaScript transcription kit (Ambion, Austin, Tex.) according to manufacturer's directions. In vitro transcripts of the cDNA were transfected into the human hepatoma cell line, HUH-7. […] Resulting cell lines were characterized for positive and negative strand RNA production and protein production over time.
The HCV replicon FRET assay was developed to monitor the inhibitory effects of compounds described in the disclosure on HCV viral replication. HUH-7 cells, constitutively expressing the HCV replicon, were grown in Dulbecco's Modified Eagle Media (DMEM) (Gibco-BRL) containing 10% Fetal calf serum (FCS) (Sigma) and 1 mg/ml G418 (Gibco-BRL). Cells were seeded the night before (1.5×10^4 cells/well) in 96-well tissue-culture sterile plates. Compound and no compound controls were prepared in DMEM containing 4% FCS, 1:100 Penicillin/Streptomysin (Gibco-BRL), 1:100 L-glutamine and 5% DMSO in the dilution plate (0.5% DMSO final concentration in the assay). Compound/DMSO mixes were added to the cells and incubated for 4 days at 37° C. After 4 days, cells were first assessed for cytotoxicity using alamar Blue (Trek Diagnotstic Systems) for a CC50 reading. The toxicity of compound (CC50) was determined by adding 1/10 volume of alamar Blue to the media incubating the cells. After 4 h, the fluorescence signal from each well was read, with an excitation wavelength at 530 nm and an emission wavelength of 580 nm, using the Cytofluor Series 4000 (Perspective Biosystems). Plates were then rinsed thoroughly with Phosphate-Buffered Saline (PBS) (3 times 150 μl).
As a secondary assay, EC50 determinations from the replicon FRET assay were confirmed in a replicon luciferase reporter assay. […] Following 4 days in a 37° C./5% CO2 incubator, cells were analyzed for Renilla Luciferase activity using the Promega Dual-Glo Luciferase Assay System. […]
(In general: In antiviral work, replicon cells carry a viral genome segment that copies itself.)

The subject of another assay is HCV. The settings on record: combination therapy; cited from earlier work.

T1 sequence (P27958 1027-1711 C1454S/C1711G, one chain of several): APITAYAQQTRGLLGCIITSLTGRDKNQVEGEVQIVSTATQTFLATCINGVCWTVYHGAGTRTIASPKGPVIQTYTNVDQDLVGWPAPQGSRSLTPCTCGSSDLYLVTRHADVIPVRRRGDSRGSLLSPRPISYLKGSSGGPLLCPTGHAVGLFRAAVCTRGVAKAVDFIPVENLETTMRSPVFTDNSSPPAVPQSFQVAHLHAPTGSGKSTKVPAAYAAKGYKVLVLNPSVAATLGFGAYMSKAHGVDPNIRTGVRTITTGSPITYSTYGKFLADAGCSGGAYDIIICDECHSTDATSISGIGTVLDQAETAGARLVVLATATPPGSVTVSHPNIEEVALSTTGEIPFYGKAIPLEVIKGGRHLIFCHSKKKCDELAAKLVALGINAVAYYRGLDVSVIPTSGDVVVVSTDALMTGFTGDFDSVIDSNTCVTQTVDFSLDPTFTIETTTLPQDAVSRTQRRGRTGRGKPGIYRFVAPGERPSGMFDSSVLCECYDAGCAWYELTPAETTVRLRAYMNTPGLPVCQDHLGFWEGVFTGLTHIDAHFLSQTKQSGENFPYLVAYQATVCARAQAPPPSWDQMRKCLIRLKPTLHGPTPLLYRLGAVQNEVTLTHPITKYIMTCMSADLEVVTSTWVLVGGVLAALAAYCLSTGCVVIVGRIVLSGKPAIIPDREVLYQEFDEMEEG

With `C=C[C@@H]1C[C@]1(NC(=O)[C@@H]1C[C@@]2(c3ccc(-c4ccccc4)cc3)CN1C(=O)[C@@H](NC(=O)OC(C)(C)C)CCCC/C=C/CS2)C(=O)NS(=O)(=O)C1CC1` [Example 4, tert-butyl (3S,12R,14S,E)-12-(biphenyl-4-yl)-14-((1R,2S)-1-(cyclopropylsulfonylcarbamoyl)-2-vinylcyclopropylcarbamoyl)-2-oxo-11-thia-1-azabicyclo[10.2.1]pentadec-8-en-3-ylcarbamate], in assay [1] (class symbols), the IC50 fell in the range of 31 to 100 nM. In assay [2] (class symbols), this compound gave an EC50 of 501 to 1000 nM.
On to `C=C[C@@H]1C[C@]1(NC(=O)[C@@H]1C[C@@]2(c3ccc(-c4ccccc4)cc3)CN1C(=O)[C@@H](NC(=O)OC(C)(C)C)CCCCC/C=C/CS2)C(=O)NS(=O)(=O)C1CC1` [Example 1, tert-butyl (3S,13R,15S,E)-13-(biphenyl-4-yl)-15-((1R,2S)-1-(cyclopropylsulfonylcarbamoyl)-2-vinylcyclopropylcarbamoyl)-2-oxo-12-thia-1-azabicyclo[11.2.1]hexadec-9-en-3-ylcarbamate], for which the IC50 in assay [1] was determined as 5 nM. Besides, the EC50 in assay [2] was 75 nM.
With `C=C[C@@H]1C[C@]1(NC(=O)[C@@H]1C[C@@]2(c3ccc(-c4ccccc4)cc3)CN1C(=O)[C@@H](NC(=O)OC(C)(C)C)CCCCCC/C=C/CS2)C(=O)NS(=O)(=O)C1CC1` [Example 2, tert-butyl (3S,14R,16S,E)-14-(biphenyl-4-yl)-16-((1R,2S)-1-(cyclopropylsulfonylcarbamoyl)-2-vinylcyclopropylcarbamoyl)-2-oxo-13-thia-1-azabicyclo[12.2.1]heptadec-10-en-3-ylcarbamate], the half-inhibitory concentration (IC50) in assay [1] (class symbols) lay in the range of 5 to 30 nM. For the same compound, the EC50 in assay [2] (class symbols) lay in the range of 501 to 1000 nM.
With alpha-interferon and ribavirin, in the assay with HCV, the “sustained efficacy, share of patients” value is on record as 40%.
Take `C=C[C@@H]1C[C@]1(NC(=O)[C@@H]1C[C@@]2(c3ccc(-c4ccccc4)cc3)CN1C(=O)[C@@H](NC(=O)OC(C)(C)C)CCCCCCCCCS2)C(=O)NS(=O)(=O)C1CC1` [Example 3, tert-butyl (3S,14R,16S)-14-(biphenyl-4-yl)-16-((1R,2S)-1-(cyclopropylsulfonylcarbamoyl)-2-vinylcyclopropylcarbamoyl)-2-oxo-13-thia-1-azabicyclo[12.2.1]heptadecan-3-ylcarbamate]: the IC50 in assay [1] (class symbols) was 5 to 30 nM. In assay [2] (class symbols), this compound had a concentration for a half-maximal effect (EC50) of 501 to 1000 nM.

As a reminder, the IC50 is the concentration at which inhibition is half-maximal. As usually defined, the EC50 is the concentration needed to bring the measured effect to its halfway point. A high value points to a less potent agent.

The record behind these values is patent US8044087B2, “Hepatitis C virus inhibitors” (priority 2008, dated 2011).
